Assay results taken from ChEMBL document CHEMBL4392886, “Antibacterial and Antibiofilm Activity of Flavonoid and Saponin Derivatives from Atriplex tatarica against Pseudomonas aeruginosa” (2019).
In brackets after ≈: the same amount, converted by molar mass. Activity calls are given as the source filed them. The rule behind the calls is not given here.

What was measured:
Type in all cases: functional
Micrococcus flavus [1] = assay: Bactericidal activity against Micrococcus flavus ATCC 10240 by microdilution method
Pseudomonas aeruginosa [2] = assay: Antibiofilm activity against Pseudomonas aeruginosa PAO1 assessed as inhibition of biofilm formation at 0.5 times MIC incubated for 24 hrs by crystal violet staining based ELISA method
Micrococcus flavus [3] = assay: Antibacterial activity against Micrococcus flavus ATCC 10240 by microdilution method
Pseudomonas aeruginosa [4] = assay: Antibacterial activity against Pseudomonas aeruginosa ATCC 27853 by microdilution method
Escherichia coli [5] = assay: Antibacterial activity against Escherichia coli ATCC 35210 by microdilution method
Pseudomonas aeruginosa [6] = assay: Antibiofilm activity against Pseudomonas aeruginosa PAO1 assessed as inhibition of biofilm formation at 0.125 times MIC incubated for 24 hrs by crystal violet staining based ELISA method
Listeria monocytogenes [7] = assay: Bactericidal activity against Listeria monocytogenes NCTC 7973 by microdilution method
Escherichia coli [8] = assay: Bactericidal activity against Escherichia coli ATCC 35210 by microdilution method
Pseudomonas aeruginosa [9] = assay: Antibiofilm activity against Pseudomonas aeruginosa PAO1 assessed as inhibition of biofilm formation at 0.25 times MIC incubated for 24 hrs by crystal violet staining based ELISA method
Listeria monocytogenes [10] = assay: Antibacterial activity against Listeria monocytogenes NCTC 7973 by microdilution method
Pseudomonas aeruginosa [11] = assay: Bactericidal activity against Pseudomonas aeruginosa ATCC 27853 by microdilution method

| Compound | MIC (Micrococcus flavus [3]) [µM] | MIC (Pseudomonas aeruginosa [4]) [µM] | MIC (Escherichia coli [5]) [µM] | MIC (Listeria monocytogenes [10]) [µM] | MBC (Micrococcus flavus [1]) [µM] | inhibition (INH) (Pseudomonas aeruginosa [2]) [%] | inhibition (Pseudomonas aeruginosa [6]) | MBC (Listeria monocytogenes [7]) [µM] | MBC (Escherichia coli [8]) [µM] | inhibition (INH) (Pseudomonas aeruginosa [9]) [%] | MBC (Pseudomonas aeruginosa [11]) [µM] | inhibition (INH) (Pseudomonas aeruginosa [6]) [%] |
| --- | --- | --- | --- | --- | --- | --- | --- | --- | --- | --- | --- | --- |
| CC1(C)[C@@H](O[C@H]2OC[C@H](O)[C@H](O)[C@H]2O[C@H]2O[C@H](CO)[C@@H](O)[C@H](O)[C@H]2O[C@H]2O[C@H](CO)[C@@H](O)[C@H](O)[C@H]2O)CC[C@]2(C)[C@H]3CC=C4[C@@H]5C[C@@](C)(C=O)CC[C@]5(C(=O)O[C@H]5O[C@H](CO)[C@@H](O)[C@H](O)[C@H]5O)CC[C@@]4(C)[C@]3(C)CC[C@@H]12 | 919 (≈ 1000 µg/mL) | 689 (≈ 751 µg/mL) | 919 (≈ 1000 µg/mL) | 1150 (≈ 1250 µg/mL) | 1380 (≈ 1500 µg/mL) | 53.4 | inactive | 1840 (≈ 2000 µg/mL) | 1380 (≈ 1500 µg/mL) | 39.4 | 1380 (≈ 1500 µg/mL) |  |
| CC1(C)S[C@@H]2[C@H](NC(=O)[C@H](N)c3ccccc3)C(=O)N2[C@H]1C(=O)O [AMPICILLIN] | 716 (≈ 250 µg/mL) | 2150 (≈ 751 µg/mL) | 716 (≈ 250 µg/mL) | 1150 (≈ 400 µg/mL) | 1150 (≈ 400 µg/mL) | 65.3 |  | 1430 (≈ 501 µg/mL) | 1430 (≈ 501 µg/mL) | 58.9 | 3580 (≈ 1250 µg/mL) | 85.2 |
| CC1(C)[C@@H](O[C@H]2OC[C@H](O)[C@H](O)[C@H]2O[C@H]2O[C@H](CO)[C@@H](O)[C@H](O)[C@H]2OS(=O)(=O)O)CC[C@]2(C)[C@H]3CC=C4[C@@H]5C[C@@](C)(CO)CC[C@]5(C(=O)O[C@H]5O[C@H](CO)[C@@H](O)[C@H](O)[C@H]5O)CC[C@@]4(C)[C@]3(C)CC[C@@H]12 |  | 496 (≈ 501 µg/mL) |  |  |  | 26.5 |  |  |  | 21.9 | 744 (≈ 751 µg/mL) | 12.5 |
| CC1(C)[C@@H](O[C@H]2OC[C@H](O)[C@H](O)[C@H]2O[C@H]2O[C@H](CO)[C@@H](O)[C@H](O)[C@H]2OS(=O)(=O)O)CC[C@]2(C)[C@H]3CC=C4[C@@H]5C[C@@](C)(C=O)CC[C@]5(C(=O)O[C@H]5O[C@H](CO)[C@@H](O)[C@H](O)[C@H]5O)CC[C@@]4(C)[C@]3(C)CC[C@@H]12 | 596 (≈ 601 µg/mL) | 994 (≈ 1000 µg/mL) | 497 (≈ 501 µg/mL) | 1990 (≈ 2000 µg/mL) | 1190 (≈ 1200 µg/mL) | 56.6 |  | 2490 (≈ 2500 µg/mL) | 596 (≈ 601 µg/mL) | 45.9 | 1190 (≈ 1200 µg/mL) | 7.2 |

These reach a lower MIC (Pseudomonas aeruginosa [4]). Values come first.

| MIC (Micrococcus flavus [3]) [µM] | MIC (Pseudomonas aeruginosa [4]) [µM] | MIC (Escherichia coli [5]) [µM] | MIC (Listeria monocytogenes [10]) [µM] | Compound | MBC (Micrococcus flavus [1]) [µM] | inhibition (INH) (Pseudomonas aeruginosa [2]) [%] | inhibition (Pseudomonas aeruginosa [6]) | MBC (Listeria monocytogenes [7]) [µM] | MBC (Escherichia coli [8]) [µM] | inhibition (INH) (Pseudomonas aeruginosa [9]) [%] | MBC (Pseudomonas aeruginosa [11]) [µM] | inhibition (INH) (Pseudomonas aeruginosa [6]) [%] |
| --- | --- | --- | --- | --- | --- | --- | --- | --- | --- | --- | --- | --- |
| 296 (≈ 250 µg/mL) | 296 (≈ 250 µg/mL) | 591 (≈ 500 µg/mL) | 886 (≈ 751 µg/mL) | COc1cc(/C=C/C(=O)O[C@H]2[C@H](O[C@H]3[C@@H](Oc4c(-c5ccc(O)c(O)c5)oc5cc(O)c(OC)c(O)c5c4=O)O[C@H](CO)[C@@H](O)[C@@H]3O)O[C@@H](C(=O)O)[C@@H](O)[C@@H]2O)ccc1O | 473 (≈ 400 µg/mL) | 43 |  | 1180 (≈ 1000 µg/mL) | 1180 (≈ 1000 µg/mL) | 26.2 | 473 (≈ 400 µg/mL) | 1.8 |
| 399 (≈ 250 µg/mL) | 399 (≈ 250 µg/mL) | 399 (≈ 250 µg/mL) | 639 (≈ 400 µg/mL) | COc1c(O)cc2oc(-c3ccc(O)c(O)c3)c(O[C@H]3O[C@H](CO)[C@@H](O)[C@H](O)[C@H]3O[C@@H]3OC[C@](O)(CO)[C@H]3O)c(=O)c2c1O | 639 (≈ 400 µg/mL) | 58.1 | inactive | 1200 (≈ 751 µg/mL) | 639 (≈ 400 µg/mL) | 12.2 | 639 (≈ 400 µg/mL) |  |
| 344 (≈ 200 µg/mL) | 344 (≈ 200 µg/mL) | 344 (≈ 200 µg/mL) | 344 (≈ 200 µg/mL) | CN[C@@H]1[C@H](O[C@H]2[C@H](O[C@H]3[C@H](O)[C@@H](O)[C@H](N=C(N)N)[C@@H](O)[C@@H]3N=C(N)N)O[C@@H](C)[C@]2(O)C=O)O[C@@H](CO)[C@H](O)[C@H]1O [STREPTOMYCIN] | 516 (≈ 300 µg/mL) | 52.5 |  | 516 (≈ 300 µg/mL) | 516 (≈ 300 µg/mL) | 74.6 | 516 (≈ 300 µg/mL) | 89.3 |
| 312 (≈ 250 µg/mL) | 312 (≈ 250 µg/mL) | 499 (≈ 400 µg/mL) | 935 (≈ 751 µg/mL) | COc1cc(/C=C/C(=O)OC[C@@]2(O)CO[C@@H](O[C@H]3[C@@H](Oc4c(-c5ccc(O)c(O)c5)oc5cc(O)c(OC)c(O)c5c4=O)O[C@H](CO)[C@@H](O)[C@@H]3O)[C@@H]2O)ccc1O | 623 (≈ 500 µg/mL) | 20.1 | inactive | 1250 (≈ 1000 µg/mL) | 623 (≈ 500 µg/mL) | 4.3 | 623 (≈ 500 µg/mL) |  |
